B1: AGT1-rBAT fusion protein (Mus musculus) (protein)
chain: MAMDSKKEIRLKRELGYFWGTNFLIINIIGAGIFVSPKGVLQHSSMNVGVSLCVWAVCAVLTLTSALCSAEIGITFPYSGAHYYFLKRCFGPLVAFLRLWTSLFLGPGLIASQALLLAEYGVQPFYPSCSAPILPRKCLALAMLWIVGILNSRGVKELSWLQTVSSVLKVGILGVISLSGLFLLVRGKKENVQRLQNAFDAEFPEVSQLIEAIFQGYFAFSGGGCFTCIAGELKKPSKTIPRCIFTGLPLVTVVYLLANISYLTVLTPQEMLSSDAVALTWTDRVIPQFTWTVPFAISASLFINLVINVLETSRVLYIASENGQLPLLFCALNVHSSPFIAVLLIISMASILIVLTNLIDLINYLYFVVSIWTALSIIGILKLRYQEPNLHRPYKVFLPFTFIALGITLSLVLIPLVKSPKLHYIYVFLFLLSGLVFYVPLIHFKVKFVWFQKLTCYLQLLFNICIPDVSDDHIHEESAAADEDKGKRDPIQMSLKGCRTNNGFVQNEDIPEQDPDPGSRDTPQPNAVSIPAPEEPHLKAVRPYAGMPKEVLFQFSGQARYRVPREILFWLTVVSVFLLIGATIAIIVISPKCLDWWQAGPIYQIYPRSFKDSDKDGNGDLKGIQEKLDYITALNIKTLWITSFYKSSLKDFRYAVEDFKEIDPIFGTMKDFENLVAAIHDKGLKLIIDFIPNHTSDKHPWFQSSRTRSGKYTDYYIWHNCTHVNGVTTPPNNWLSVYGNSSWHFDEVRKQCYFHQFLKEQPDLNFRNPAVQEEIKEIITFWLSKGVDGFSFDAVKFLLEAKDLRNEIQVNTSQIPDTVTHYSELYHDFTTTQVGMHDIVRDFRQTMNQYSREPGRYRFMGAEASAESIERTMMYYGLPFIQEADFPFNKYFTTIGTLSGHTVYEVITSWMENMPEGKWPNWMTGGPETPRLTSRVGSEYVNAMHMLLFTLPGTPITYYGEEIGMGDISVTNFNESYDSTTLVSKSPMQWDNSSNAGFTEANHTWLPTNSDYHTVNVDVQKTQPSSALRLYQDLSLLHATELVLSRGWFCLLRDDSHSVVYTRELDGIDNVFLVVLNFGESSTVLNLQGIISDLPPELRIRLSTNSASKGSAVDTRAISLEKGEGLVLEHSTKAPLHQQAAFRDRCFVSSRACYSSALDILYSSC

Key:
[1] = biological target: T1, AGT1-4F2hc fusion protein (Mus musculus, UniProt P10852+Q91WN3); experiment: Inhibition of 14C-aspartic acid uptake by added amino acids and analogues, oocytes expressing AGT1-4F2hc; assay type: cell-based; conditions: 2 mM non-labeled compound, 14C-aspartic acid 20 μM, sodium-free uptake solution
T1 sequence (Q91WN3+P10852 with tags, fused parts or gaps): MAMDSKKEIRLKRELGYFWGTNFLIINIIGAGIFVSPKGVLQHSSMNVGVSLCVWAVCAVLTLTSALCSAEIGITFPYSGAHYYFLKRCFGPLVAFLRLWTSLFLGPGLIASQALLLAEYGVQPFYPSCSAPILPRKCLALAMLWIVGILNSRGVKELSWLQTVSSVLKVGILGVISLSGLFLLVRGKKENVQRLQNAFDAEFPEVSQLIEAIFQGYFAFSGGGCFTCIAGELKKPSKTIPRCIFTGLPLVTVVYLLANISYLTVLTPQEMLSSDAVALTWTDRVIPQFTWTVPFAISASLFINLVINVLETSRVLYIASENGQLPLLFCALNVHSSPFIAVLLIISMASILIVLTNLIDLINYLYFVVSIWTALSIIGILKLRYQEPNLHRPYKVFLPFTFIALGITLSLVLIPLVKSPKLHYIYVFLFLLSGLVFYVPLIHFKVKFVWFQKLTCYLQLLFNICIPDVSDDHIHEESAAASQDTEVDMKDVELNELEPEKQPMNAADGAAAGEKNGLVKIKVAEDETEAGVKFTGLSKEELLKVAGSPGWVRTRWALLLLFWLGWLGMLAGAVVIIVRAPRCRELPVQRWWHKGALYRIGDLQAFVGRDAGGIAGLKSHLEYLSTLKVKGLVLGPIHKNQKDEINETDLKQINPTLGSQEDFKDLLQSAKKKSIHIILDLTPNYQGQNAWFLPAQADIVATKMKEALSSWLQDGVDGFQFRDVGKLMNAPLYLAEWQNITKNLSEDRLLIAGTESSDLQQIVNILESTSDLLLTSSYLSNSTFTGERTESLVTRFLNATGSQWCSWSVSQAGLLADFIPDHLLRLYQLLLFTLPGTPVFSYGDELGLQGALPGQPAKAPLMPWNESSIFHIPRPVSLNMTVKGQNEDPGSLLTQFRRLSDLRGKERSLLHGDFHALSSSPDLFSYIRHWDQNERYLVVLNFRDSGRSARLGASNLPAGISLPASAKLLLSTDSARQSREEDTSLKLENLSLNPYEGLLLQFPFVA
Method: However, a sodium-free uptake solution was used and the uptake ^14C-aspartic acid (20 μM) was measured in the presence and absence of 2 mM of various compounds (non-labeled).

AGT1-rBAT fusion protein = biological target: T2, AGT1-rBAT fusion protein (Mus musculus, UniProt Q91WN3+Q91WV7); experiment: Uptake of 14C-aspartic acid by oocytes expressing AGT1-rBAT; assay type: cell-based; conditions: oocyte injected with AGT1-rBAT cRNA; 14C-aspartic acid 20 μM, 30 minutes, compared with water-injected control
T2 construct: expressed in transfected cells; host or cells: oocyte injected with AGT1-rBAT fusion protein gene cRNA
T2 sequence (Q91WN3+Q91WV7 with tags, fused parts or gaps): B1 chain

[2] = biological target: T1, AGT1-4F2hc fusion protein; experiment: Uptake of radio-labeled amino acids by oocytes expressing AGT1-4F2hc; assay type: cell-based; conditions: oocyte injected with AGT1-4F2hc cRNA, 14C compound as substrate
Excerpt: With regard to a substrate, various compounds which were labeled with radioactivity were used instead of ^14C-aspartic acid.

[3] = biological target: T1, AGT1-4F2hc fusion protein; experiment: Michaelis-Menten kinetic analysis of substrate uptake by oocytes expressing AGT1-4F2hc; conditions: AGT1-4F2hc in oocytes; ratio to Vmax value of L-aspartic acid; mean value ± standard error
Method: (§1) The oocyte were allowed to stand for 30 minutes in a sodium-free uptake solution (100 mM choline chloride, 2 mM potassium chloride, 1.8 mM calcium chloride, 1 mM magnesium chloride and 5 mM HEPES; pH 7.4) containing ^14 C-aspartic acid (20 μM) as a substrate and an uptake rate of the substrate was measured by the count of radioactivity incorporated into the cells.
(§2) The Michaelis-Menten kinetic analysis was conducted by investigating the change in the ratio of uptake of aspartic acid by the difference in the substrate aspartic acid concentration.
(§3) The aspartic acid uptake experiment was carried according to the method mentioned in the above Example 2(2) using the oocyte into which a cRNA of a gene of a fusion protein of AGT1 with 4F2hc or with rBAT (AGT1-4F2hc or AGT1-rBAT) was injected.
(§4) The Michaelis-Menten kinetic analysis was similarly carried out in a fusion protein of AGT1 with 4F2hc (AGT1-4F2hc) in glutamic acid and Km value and Vmax value were calculated.
N[C@@H](CCC(=O)O)C(=O)O = experiment: cells, lysate or membranes; conditions: other: substrate transport by AGT1-4F2hc in Xenopus oocytes, sodium-free uptake solution; mean value ± standard error; pH 7.4
Method: as §1, §2, §3, §4

[4] = substrate: N[C@@H](CC(=O)O)C(=O)O; experiment: cells, lysate or membranes; conditions: other: AGT1-rBAT in Xenopus oocytes; pH 7.4

| Molecule | effect on uptake of 14C-aspartic acid mediated by AGT1-4F2hc (cis-inhibition) [1] | other results |
| --- | --- | --- |
| O=C(O)[C@@H]1CN[C@@H](C(=O)O)C1 (relative stereo) [L-trans-pyrrolidine-2,4-dicarboxylate] | no inhibition effect | – |
| NC1(C(=O)O)CC2CCC1C2 (stereo not drawn) [2-amino-2-norbornane-carboxylic acid] | did no affect | – |
| N[C@H](CC(=O)O)C(=O)O [D-aspartic acid] | did no affect | – |
| N[C@H](CCC(=O)O)C(=O)O [D-glutamic acid] | did no affect | – |
| N[C@@H](CC(=O)O)C(=O)O [L-Aspartic acid] | significant cis-inhibiting effect | uptake of aspartic acid into the oocyte (AGT1-rBAT fusion protein): higher uptake; uptake of radio-labeled substrate into the oocyte ([2]; listed as L-aspartic acid): substantial uptake; uptake of radio-labeled substrate into the oocyte ([2]; listed as aspartic acid): higher uptake; Vmax [3]: (1.00) |
| N[C@@H](CCC(=O)O)C(=O)O [L-Glutamic acid] | significant cis-inhibiting effect | uptake of radio-labeled substrate into the oocyte [2]: substantial uptake; Vmax [3]: 0.63 ± 0.10 |
| N[C@@H](CS(=O)(=O)O)C(=O)O [L-cysteate] | strongly inhibited | – |
| N[C@@H](CS)C(=O)O.O=S(=O)(O)O [L-cysteine sulfate] | strongly inhibited | – |
| N[C@@H](CCS(=O)(=O)O)C(=O)O [L-homocysteate] | no inhibition effect | – |
| N[C@@H](COS(=O)(=O)O)C(=O)O [L-serine-O-sulfate] | strongly inhibited | – |
| N[C@@H](CCCC(=O)O)C(=O)O [L-α-aminoadipate] | no inhibition effect | – |
| N[C@@H](CS)C(=O)O [cysteine] | significant cis-inhibiting effect | – |
| N[C@@H](CSSC[C@H](N)C(=O)O)C(=O)O [cystine] | did no affect | – |
| CC(C)[C@H]1CN[C@H](C(=O)O)[C@H]1CC(=O)O [dihydrokainate] | no inhibition effect | – |
| NC(C(=O)O)C(O)C(=O)O (stereo not drawn) [threo-β-hydroxyaspartate] | strongly inhibited | – |
| AGT1-4F2hc fusion protein (Mus musculus) | – | Km (N[C@@H](CCC(=O)O)C(=O)O): 21.8 ± 6.5 µM |
| γ-aminoisobutyric acid | did no affect | – |
| B1 | – | Km [4]: 20.1 ± 6.1 µM |

Source: patent publication US7419790B2, “Sodium-independent transporter carrying acidic amino acid and its gene” (J-Pharma Co., Ltd, priority 2002, dated 2008)
